Experimental findings from publication PMC8911992, “In Vitro and Computational Studies of Perezone and Perezone Angelate as Potential Anti-Glioblastoma Multiforme Agents” (Molecules, 2022) are described below.

In the test the target is T1, PARP-1 (Homo sapiens, UniProt P09874).
T1 construct: gene PARP1
The test is described as follows: PARP-1 colorimetric assay kit (BPS Bioscience […]). The class given is biochemical.

T1 sequence (P09874 2-1014): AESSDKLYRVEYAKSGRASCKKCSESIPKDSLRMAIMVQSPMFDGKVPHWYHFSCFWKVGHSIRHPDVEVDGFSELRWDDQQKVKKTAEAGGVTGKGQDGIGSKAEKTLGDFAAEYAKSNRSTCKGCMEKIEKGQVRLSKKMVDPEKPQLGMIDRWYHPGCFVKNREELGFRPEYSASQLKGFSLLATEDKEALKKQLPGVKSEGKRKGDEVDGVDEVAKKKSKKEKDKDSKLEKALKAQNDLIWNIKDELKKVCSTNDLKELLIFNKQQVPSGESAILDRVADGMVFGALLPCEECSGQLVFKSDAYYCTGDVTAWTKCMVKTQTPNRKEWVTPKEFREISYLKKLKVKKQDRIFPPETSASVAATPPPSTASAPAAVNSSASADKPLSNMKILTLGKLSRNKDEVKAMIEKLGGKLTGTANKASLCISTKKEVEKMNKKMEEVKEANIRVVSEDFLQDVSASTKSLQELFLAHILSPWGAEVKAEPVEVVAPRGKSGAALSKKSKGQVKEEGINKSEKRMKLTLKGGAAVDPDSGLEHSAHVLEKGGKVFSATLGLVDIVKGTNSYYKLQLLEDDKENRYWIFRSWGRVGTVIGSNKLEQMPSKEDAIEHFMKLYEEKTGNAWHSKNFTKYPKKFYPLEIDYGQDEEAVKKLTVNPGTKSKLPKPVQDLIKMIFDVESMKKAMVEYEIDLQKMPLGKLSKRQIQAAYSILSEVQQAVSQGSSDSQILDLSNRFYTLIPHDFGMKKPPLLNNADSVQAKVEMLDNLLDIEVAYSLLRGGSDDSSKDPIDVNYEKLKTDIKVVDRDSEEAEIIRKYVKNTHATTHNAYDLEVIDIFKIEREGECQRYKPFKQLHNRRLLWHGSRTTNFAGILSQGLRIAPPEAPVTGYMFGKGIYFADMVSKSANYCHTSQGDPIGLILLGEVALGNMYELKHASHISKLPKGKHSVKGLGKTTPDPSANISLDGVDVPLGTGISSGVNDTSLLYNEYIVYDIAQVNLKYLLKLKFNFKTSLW

Usually IC50 stands for the concentration that inhibits the measured activity by half. Read a low IC50 as greater potency. Consider `C/C=C(/C)C(=O)OC1=C(C(C)CCC=C(C)C)C(=O)C=C(C)C1=O` (stereo not shown) [perezone angelate], for which the IC50 was found to be 5.25 µM.
